For 3 compounds, solubility (mole fraction) results are on record in BigSolDB 2.1.

Each structure is given as a SMILES string.

As for `Br.CC(C)c1ccc(NC2=NCCC3(CCCCC3)[Se]2)cc1`, the solubility (mole fraction) by setting is: (in n-hexane, 293.15 K) 4.69e-06; (in n-hexane, 298.15 K) 5.82e-06; (in n-hexane, 303.15 K) 7.39e-06; (in n-hexane, 308.15 K) 8.84e-06; (in n-hexane, 313.15 K) 1.11e-05; (in n-octanol, 293.15 K) 0.0484. Moreover, the solubility (mole fraction) stood at 0.0551 (in n-octanol, 298.15 K); 0.0647 (in n-octanol, 303.15 K); 0.0728 (in n-octanol, 308.15 K); 0.0831 (in n-octanol, 313.15 K).
On to `Br.c1ccc(NC2=NCCC3(CCCCC3)[Se]2)cc1`, for which the solubility (mole fraction) runs as follows: (in n-hexane, 293.15 K) 4.94e-06; (in n-hexane, 298.15 K) 5.94e-06; (in n-hexane, 303.15 K) 7.1e-06; (in n-hexane, 308.15 K) 8.46e-06; (in n-hexane, 313.15 K) 9.98e-06; (in n-octanol, 293.15 K) 0.0186. The solubility (mole fraction) is, setting by setting: (in n-octanol, 298.15 K) 0.0229; (in n-octanol, 303.15 K) 0.0278; (in n-octanol, 308.15 K) 0.0329; (in n-octanol, 313.15 K) 0.0385.
In the case of `Br.Fc1ccc(NC2=NCCC3(CCCCC3)[Se]2)cc1`, the solubility (mole fraction) reads like this: (in n-hexane, 293.15 K) 1.27e-06; (in n-hexane, 298.15 K) 1.59e-06; (in n-hexane, 303.15 K) 1.9e-06; (in n-hexane, 308.15 K) 2.35e-06; (in n-hexane, 313.15 K) 2.89e-06; (in n-octanol, 293.15 K) 0.003. In addition, the solubility (mole fraction) reads like this: (in n-octanol, 298.15 K) 0.0036; (in n-octanol, 303.15 K) 0.0042; (in n-octanol, 308.15 K) 0.0048; (in n-octanol, 313.15 K) 0.0055.
